The values below come from patent US20260137820A1, “TRIFUNCTIONAL COMPOUND AND USE THEREOF” (PEKING UNIVERSITY, priority 2022, published 2026).

Structures are written as SMILES.

Data set [1] relates to HT-1080-FAP tumor. Briefly: PET/CT imaging in HT-1080-FAP tumor-bearing mouse model. Format: in vivo. The note with it: ^68Ga label, 18.5 MBq via tail vein, p<0.005. As to the method: Mouse model: Nu/Nu mice (SPF grade) were purchased from Beijing Charles River Laboratories (China) and injected subcutaneously with HT-1080-FAP cells to construct a tumor model with high FAP expression.
All PET/CT scans were carried out on Mediso nanoScan® PET 122S small animal PET/CT.
After a certain number of HT-1080-FAP tumor mice were taken and injected via the tail vein with 7.4-18.5 MBq of ^68Ga/^86Y-FAPI-04 (control) and ^68Ga/^86Y-FAPI-CB series molecules at specified time points (Note: the injection of the control and investigation molecules was separated apart by at least five half-lives of the nuclide to ensure that the radioactivity of the previous probe had almost completely decayed and was essentially completely metabolized), imaging was carried out at specified time points. In some examples, the mice were anesthetized and then sacrificed by neck breaking at a certain time point. Organs were dissected and taken for radioactivity measurement.
A ^68Ge-^68Ga generator was eluted with 5 mL of 0.6 M high-purity hydrochloric acid to obtain a Ga-68 hydrochloric acid solution. 1 mL of the Ga-68 solution after elution was taken, and 100 μL of 3 M sodium hydroxide and 130 μL of 3M sodium acetate were added to adjust the acidity to a final pH of 4.0. 12 μg of FAPI-CB-00 compound was added, and the reaction mixture was heated to 70° C. and maintained for 20 min. […]

The subject of data set [2] is FAP, DPP-4 and PREP. Briefly: Binding selectivity to homologous proteins (competitive inhibition of enzyme substrate, IC50). Format: biochemical. The note with it: from IC50 values, pNA release. The procedure:
Taking FAP target as an example, homologous proteins thereof include, but are not limited to, DPP-4 and PREP. The structural similarity thereof may lead to a decreased binding selectivity of the modified precursor molecules for the homologous proteins, resulting in an increased uptake in non-target organs.
The binding selectivity for homologous proteins was determined by a competitive inhibition experiment on the substrate of the enzymes, and the binding/inhibition selectivity thereof is indirectly evaluated by the median inhibitory concentration (IC50) values obtained.
By reference to the method described in Extended Structure-Activity Relationship and Pharmacokinetic Investigation of (4-Quinolinoyl)glycyl-2-cyanopyrrolidine Inhibitors of Fibroblast Activation Protein (FAP). Journal of Medicinal Chemistry 57, 3053-3074 (2014), published by Jansen et al., the initial rate of p-nitroaniline (pNA) released from the substrate (absorption at 405 nm) was measured by using a microplate reader (PerkinElmer, Victor™ X5) at 37° C. in a final volume of 200 μL to determine the kinetic properties of the enzyme activity. […]
The determination method for IC50 on FAP is as follows: the substrate Z-Gly-Pro-p-nitroanilide (50 μM, Cat #G-58468, HEOWNS) was used to measure FAP activity at pH 7.4. […] The mixture was then incubated at 37° C. for 6 hours, and the release of pNA was then measured. […]

On to `N#C[C@@H]1CC(F)(F)CN1C(=O)CNC(=O)c1ccnc2ccc(OCCCN3CCN(C(=O)[C@H](CCCCNC(=O)c4ccc(OS(=O)(=O)F)cc4)NC(=O)CN4CCN(CC(=O)O)CCN(CC(=O)O)CCN(CC(=O)O)CC4)CC3)cc12` [FAPI-CB-01], for which the “improvement of maximum standard tumor uptake value (SUVmax) compared with FAPI-04” value in data set [1] was “about 2 times”. In addition, the “selectivity to FAP protein over homologous proteins DPP-4 and PREP” value in data set [2] was “high selectivity”.
